Values quoted from earlier work in patent US20260306436A1, “TRETINOIN LIPOSOME FORMULATIONS AND USES THEREOF TO TREAT CANCER” (Highfield BioPharmaceuticals Corporation, priority 2023, published 2026).

What was measured:
[1] = system: BSA; conditions: stated for the release system with BSA
[2] = background statement
[3] = background statement; remark: listed apart in the source

Protein binding rate [1]: 95%
Water solubility [2]: very low
Plasma half-life [3]: short
SMILES: CC1=C(/C=C/C(C)=C/C=C/C(C)=C/C(=O)O)C(C)(C)CCC1 [all-trans retinoic acid]
